Measurements reported in patent publication US10342797B2, “Solubility of therapeutic agents” (LivePet LLC, priority 2016, dated 2019).
In brackets after ≈: the same amount, converted by molar mass.

Key:
[1] = Solubility in lipofullerene base, confirmed by a turbidometer
Method: Each of the above mixtures were sonicated for 30 seconds followed by vortexing for 12 hours in the dark.

Water solubility = format: physicochemical; details: read-out: Water solublity
AsPC-1 cells = assay: Xenograft studies; format: in vivo, nude mice; details: oral gavage, 1 mg of triptolide/1 mL of C60-olive oil base, ~28 days
Method: AsPC-1 cells were purchased from American Type Culture Collection (ATCC). Cells were harvested from sub-confluent cultures after brief exposure to 0.25% trypsin and 0.2% EDTA. The cells were washed once in serum-free medium and re-suspended thereafter in PBS. Only suspensions consisting of single cells with >90% viability were used for the injections. Mice were injected with 1.5×10^6 cells sub-cutaneously (S.C) on the right side of hind leg of each mouse using a 23-gauge needle. After tumor transplant, the mice were observed daily for one week, before randomly assigning them to the treatment groups (n=5). The animals thereafter received triptolide (1 mg of triptolide/1 mL of C60-olive oil base) by oral gavage starting on day 15 or on tumor volume reaching ˜40-70 mm^3. The treatment was continued until ˜28 days from first dose. […] Tumor size was measured once a week. At the end of the experimental period, the animals were euthanized.

Row | SMILES | solubility (Water solubility) [mg/mL] | Fold solubility ([1]; 12 h) | other results
1 | CC[C@@]1(O)C(=O)OCc2c1cc1n(c2=O)Cc2cc3ccccc3nc2-1 [camptothecin] | 0.107 (≈ 307 µM) |  | Fold solubility ([1]; lipofullerene base compared to solubility in water): 5
2 | CC(=O)O[C@@]12CO[C@@H]1C[C@H](O)[C@@]1(C)C(=O)[C@H](O)C3=C(C)[C@@H](OC(=O)[C@H](O)[C@@H](NC(=O)OC(C)(C)C)c4ccccc4)C[C@@](O)([C@@H](OC(=O)c4ccccc4)[C@H]21)C3(C)C [docetaxel] |  | >100 | 
3 | C#Cc1cccc(Nc2ncnc3cc(OCCOC)c(OCCOC)cc23)c1 [erlotinib] | 0.4 (≈ 1020 µM) | 3 | 
4 | CC(=O)O[C@H]1C(=O)[C@@]2(C)[C@H]([C@H](OC(=O)c3ccccc3)[C@]3(O)C[C@H](OC(=O)[C@H](O)[C@@H](NC(=O)c4ccccc4)c4ccccc4)C(C)=C1C3(C)C)[C@]1(OC(C)=O)CO[C@@H]1C[C@@H]2O [paclitaxel] | 0.00556 (≈ 6.51 µM) | 90 | 
5 | CC(C)[C@]12O[C@H]1[C@@H]1O[C@]13[C@]1(O[C@H]1C[C@H]1C4=C(CC[C@@]13C)C(=O)OC4)[C@@H]2O [triptolide] |  |  | amount of triptolide dissolved in lipofullerene base ([1]; lipofullerene base of Example 1, nitrogen gas atmosphere, stirred for 2 hours): About 2 gm/1000 mL; tumor size (AsPC-1 cells; 50 μg/kg): tumor regression was observed; tumor size (AsPC-1 cells; 100 μg/kg): tumor regression was observed; tumor size (AsPC-1 cells; 250 μg/kg): tumor regression was observed
6 | CC[C@]1(O)C[C@H]2CN(CCc3c([nH]c4ccccc34)[C@@](C(=O)OC)(c3cc4c(cc3OC)N(C=O)[C@H]3[C@@](O)(C(=O)OC)[C@H](OC(C)=O)[C@]5(CC)C=CCN6CC[C@]43[C@@H]65)C2)C1 [vincristine] | 0.03 (≈ 36.4 µM) | 17 | 
